Reference: patent publication US20240299377A1, “METHODS AND COMPOSITIONS FOR TREATING IRON DISORDERS” (BeyondSpring Pharmaceuticals, Inc., priority 2019, published 2024)

Test system: plasma haptoglobin levels
Test: Plasma haptoglobin levels in non-metastatic breast cancer patients receiving TAC plus plinabulin (hematology safety assessments)
Format: in vivo, human
Excerpt: Method. Non-metastatic Breast Cancer patients receiving TAC (taxotere, doxorubicin, cyclophosphamide) also received plinabulin at a dose of 10 (n=15), 20 (n=15) or 30 (n=12) mg/m^2. Hematology safety assessments were done at predose, and post-dose plinabulin at Day 2, 3, 6, 7, 8, 9, 10, 11, 12, 13 and 15, as predefined prospectively per protocol. Plinabulin was given on Day 1 as a single dose per 21-day cycle.

Structure (SMILES): CC(C)(C)c1[nH]cnc1/C=c1\[nH]c(=O)/c(=C/c2ccccc2)[nH]c1=O [Plinabulin, (3Z,6Z)-3-Benzylidene-6-{[5-(2-methyl-2-propanyl)-1H-imidazol-4-yl]methylene}-2,5-piperazinedione]
- dose comparison for increasing plasma haptoglobin levels (30 mg/m^2 vs lower doses (10, 20 mg/m^2), p<0.01): most effective dose
- mean (SD) increase of maximum haptoglobin levels from baseline (Plinabulin 30 mg/m^2 single dose on Day 1 of 21-day cycle with TAC, baseline mean (SD) 1.32 (0.453) g/L, p<0.0005): 1.61 (1.29) g/L
- fold increase of maximum haptoglobin levels (Plinabulin 30 mg/m^2 single dose, versus baseline): more than 2 fold
- duration of haptoglobin increase (single dose 30 mg/m^2, FIG. 1): > 3 weeks
- time to haptoglobin (Hp) increase after plinabulin dosing (single dose 30 mg/m^2, P<0.03): ≤ 2 days
